Structures can show the parent of a compound that is named as a salt.

T1 sequence (P47898 whole entry): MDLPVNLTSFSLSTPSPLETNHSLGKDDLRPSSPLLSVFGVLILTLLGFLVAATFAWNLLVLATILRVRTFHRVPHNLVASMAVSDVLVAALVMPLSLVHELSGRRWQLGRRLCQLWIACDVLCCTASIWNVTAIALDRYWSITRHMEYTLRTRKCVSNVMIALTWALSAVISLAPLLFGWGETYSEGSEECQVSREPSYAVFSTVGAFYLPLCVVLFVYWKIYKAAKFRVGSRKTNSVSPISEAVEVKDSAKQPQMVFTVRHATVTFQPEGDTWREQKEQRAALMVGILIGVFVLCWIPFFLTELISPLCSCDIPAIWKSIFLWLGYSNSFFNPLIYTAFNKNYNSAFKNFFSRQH

The first assay addresses T1, human 5-HT5A receptor (Homo sapiens, UniProt P47898).
T1 construct: expressed in transfected cells; membranes used
Kind of assay: Test on a human 5-HT5A receptor binding inhibition ([3H]5-CT). The note with it: membrane from HEK293 cells for forced expression of human 5-HT5A receptor; Ki calculated from IC50 and Kd of [3H]5-CT (4.95 nM). The gist of the method: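 Membranes from HEK293 cells stably expressing human 5-HT5A, preincubated with compound 15 min at room temperature, then 2 nM [3H]5-CT added (stock solution), 37 °C for 60 min; filter-bound radioactivity counted. IC50 versus 1 μM 5-CT as full inhibition; Ki via Cheng–Prusoff using Kd 4.95 nM.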
As to `NC(N)=NC(=O)c1ccc2cccc(-c3c(F)cccc3Cl)c2c1` [Example 1, 8-(2-chloro-6-fluorophenyl)-N-(diaminomethylene)-2-naphthamide hydrochloride], the Ki was 0.96 nM.
Same read-out and setting: the value for `Cc1nc(C2CC2)sc1-c1cccc2ccc(C(=O)N=C(N)N)cc12` [Example 163] was 3 to 30 nM; that for `NC(N)=NC(=O)c1ccc2cccc(-c3cc(F)ccc3Cl)c2c1` [Example 78] was 0.3 to 3 nM.
Consider `NC(N)=NC(=O)c1ccc2cccc(-c3ccsc3)c2c1` [Example 47], for which the Ki is 0.3 to 3 nM.
Consider `COc1cccc(-c2cccc3ccc(C(=O)N=C(N)N)cc23)c1F` [Example 40], for which the Ki was 3 to 30 nM.
Same read-out and setting: the result for `NC(N)=NC(=O)c1ccc2cccc(-c3c(O)ccc(F)c3F)c2c1` [Example 117] reads 0.3 to 3 nM; that for `NC(N)=NC(=O)c1ccc2cccc(-c3cccc(F)c3Cl)c2c1` [Example 77], 0.3 to 3 nM; that for `NC(N)=NC(=O)c1ccc2cccc(-c3cccnc3)c2c1` [Example 21], 3 to 30 nM.
The same measure, in the same setting: the value for `NC(N)=NC(=O)c1ccc2cccc(-c3cc(C4CC4)ncc3F)c2c1` [Example 199] was 3 to 30 nM.

The subject of another assay is mouse in which hyperactivity was caused by methamphetamine (MAP) or MK-801. The assay is described as follows: Improvement effect on increase in motion induced by methamphetamine or MK-801 in mice. In kind it is in vivo. Particulars: male ICR mouse; compound oral at a dose of 0.1 mg/kg; MK-801 0.3 mg/kg i.p.; motion for 60 minutes; P<0.05. How it is done:
The improvement effect of compound of formula (I) was evaluated by measuring the quantity of motion by IR irradiation when a compound was administered to a mouse in which hyperactivity was caused by methamphetamine (hereinafter, simply referred to as “MAP”) or MK-801, known as an animal model of schizophrenia.
The animal was taken out of the breeding cage, orally administered with a compound to be tested, and then placed into a cage for breeding. After 30 minutes, the animal was put into a cage for measurement, and motion with the compound to be tested alone was measured. After 30 to 90 minutes, the animal was taken out, and intraperitoneally administered with a drug for increasing the motion (MAP; 1 mg/kg or MK-801; 0.3 mg/kg, dissolved in a physiological saline, respectively). Then, motion for a certain period of time (60 minutes) was measured by using a motion measurement device
(CompACT AMS from Muromachi Kikai Co., Ltd.) by means of an infrared sensor.
For normal mouse (a mouse administered with physiological saline) and mouse administered with a drug for increasing the motion, a Student's T test was performed for evaluation for each interval. For a mouse group administered with the compound to be tested, an assay was performed using a solvent (vehicle) group and a Dunnett's T test. […]
Turning to `NC(N)=NC(=O)c1ccc2cccc(-c3c(F)cccc3Cl)c2c1` [Example 1, 8-(2-chloro-6-fluorophenyl)-N-(diaminomethylene)-2-naphthamide hydrochloride], the “inhibition of hyperactivity caused by MK-801” value is given as “significantly inhibited”.

The values above are taken from patent US20110306621A1, “ACYLGUANIDINE DERIVATIVES” (priority 2009, published 2011).
